Among the data in article PMC6380167, “Phosphoglycolate has profound metabolic effects but most likely no role in a metabolic DNA response in cancer cell lines” (Biochemical Journal, 2019) are Ki values, retold here.

In the assay the target is T1, enolase (Oryctolagus cuniculus, UniProt P25704).
T1 construct: gene ENO3; purified rabbit muscle enolase (Sigma)
Kind of assay: coupled pyruvate kinase/lactate dehydrogenase enzyme assay, NADH absorption at […] nm. It is filed as biochemical.

Molecules are shown by their SMILES.

T1 sequence (P25704 2-434): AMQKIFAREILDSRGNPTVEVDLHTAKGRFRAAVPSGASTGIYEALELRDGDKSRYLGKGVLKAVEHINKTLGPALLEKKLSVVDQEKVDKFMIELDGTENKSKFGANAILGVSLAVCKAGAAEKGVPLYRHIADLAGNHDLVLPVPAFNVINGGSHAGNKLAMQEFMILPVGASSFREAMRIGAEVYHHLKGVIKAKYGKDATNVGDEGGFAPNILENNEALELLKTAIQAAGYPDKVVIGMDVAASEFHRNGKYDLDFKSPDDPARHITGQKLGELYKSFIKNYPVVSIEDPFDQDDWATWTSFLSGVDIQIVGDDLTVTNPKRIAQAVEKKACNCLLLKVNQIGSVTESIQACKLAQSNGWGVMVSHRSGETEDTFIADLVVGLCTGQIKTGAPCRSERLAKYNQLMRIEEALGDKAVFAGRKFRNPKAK

In turn, `O=C(O)COP(=O)(O)O` [phosphoglycolate] returned a Ki of around 160 µM.
